# Source: patent US20180249707A1, “METHOD OF CONTROLLING ALGAE IN A BODY OF WATER” (priority 2013, published 2018)
# Columns and labels:
# M. aeruginosa = assay: Repeat exposure of M. aeruginosa to BADA at 25-200 ppb; format: cell-based
# Description: The experiment was conducted for 14 days and was initiated using 100 mL BG-11 medium contained in 200 mL flasks. […] The experiment was initiated by exposing the algae to 0.2, 0.4, 0.8, 1.0, 1.2, 1.4, 1.8, and 2.0 ppm (mg/L) as BADA, 0.5 Cu/L Cutrine®-Plus. The solution was heated in a water bath and diluted to 70 mg/L using warmed deionized water. Cutrine®-Plus stock solution was made at 50 mg/L using deionized water. Three replicates of each exposure concentration, along with three replicates of an untreated reference were tested. Each sample was maintained at room temperature with 12-hours of light and 12-h dark photoperiod. The chlorophyll a concentrations of Microcystis aeruginosa through the 14 day exposure after exposure to concentrations of BADA and Cutrine®-Plus. The results are shown in TABLES 5, and 6, which show the chlorophyll a concentration and the cell density, respectively.
# Example 5 was repeated but using the N,N-bis-(3-aminopropyl) dodecylamine in the amounts of 200 parts per billion ((ppb) 0.2 ppm), 100 parts per billion ((ppb) 0.1 ppm), 75 parts per billion ((ppb) 0.075 ppm), 50 parts per billion ((ppb) 0.05 ppm), and 25 parts per billion ((ppb) 0.025 ppm). A control example was also repeated since the M. aeruginosa was from a different culture and the test were conducted at different times. The results are shown in TABLES 8, and 9, which show the chlorophyll a concentration and the cell density, respectively.
# Cladophora sp. = assay: 14-day flask exposure of Cladophora sp. to BADA; format: cell-based, C. kosterae
# Description: The experiment was conducted for 14 days and was initiated using 100 mL BG-11 medium contained in 200 mL flasks. […] The solution was heated in a water bath and diluted to 70 mg/L using warmed deionized water. The concentration of DMSO was approximately 350 mg/L in the test beakers. Cutrine®-Plus stock solution was made at 50 mg/L using deionized water. Three replicates of each exposure concentration, along with three replicates of an untreated reference were tested. Each sample was maintained at room temperature with 12-hours of light and 12-h dark photoperiod. […]
compound,measurement,setting,value
"CCCCCCCCCCCCN(CCCN)CCCN [BADA, N,N-bis-(3-aminopropyl) dodecylamine]",Cell density of M. aeruginosa cultures,"M. aeruginosa; BADA 25 ppb, day 0 (initial)",3.8E+05 cells/mL
same,In vivo chlorophyll a concentrations of M. aeruginosa cultures,"M. aeruginosa; BADA 25 ppb, day 0 (initial)",1.20 µg/L
same,In vivo chlorophyll a concentrations of M. aeruginosa cultures,"M. aeruginosa; BADA 25 ppb, day 1",0.67 µg/L
same,In vivo chlorophyll a concentrations of M. aeruginosa cultures,"M. aeruginosa; BADA 25 ppb, day 5",0.64 µg/L
same,In vivo chlorophyll a concentrations of M. aeruginosa cultures,"M. aeruginosa; BADA 25 ppb, day 7",1.58 µg/L
same,In vivo chlorophyll a concentrations of M. aeruginosa cultures,"M. aeruginosa; BADA 25 ppb, day 12",7.91 µg/L
same,Cell density of M. aeruginosa cultures,"M. aeruginosa; BADA 25 ppb, day 14",7.3E+06 cells/mL
same,In vivo chlorophyll a concentrations of M. aeruginosa cultures,"M. aeruginosa; BADA 25 ppb, day 14",10.06 µg/L
same,Cell density of M. aeruginosa cultures,"M. aeruginosa; BADA 50 ppb, day 0 (initial)",3.8E+05 cells/mL
same,In vivo chlorophyll a concentrations of M. aeruginosa cultures,"M. aeruginosa; BADA 50 ppb, day 0 (initial)",1.20 µg/L
same,In vivo chlorophyll a concentrations of M. aeruginosa cultures,"M. aeruginosa; BADA 50 ppb, day 1",0.48 µg/L
same,In vivo chlorophyll a concentrations of M. aeruginosa cultures,"M. aeruginosa; BADA 50 ppb, day 5",0.04 µg/L
same,In vivo chlorophyll a concentrations of M. aeruginosa cultures,"M. aeruginosa; BADA 50 ppb, day 7",0.06 µg/L
same,In vivo chlorophyll a concentrations of M. aeruginosa cultures,"M. aeruginosa; BADA 50 ppb, day 12",0.71 µg/L
same,Cell density of M. aeruginosa cultures,"M. aeruginosa; BADA 50 ppb, day 14",1.5E+06 cells/mL
same,In vivo chlorophyll a concentrations of M. aeruginosa cultures,"M. aeruginosa; BADA 50 ppb, day 14",1.93 µg/L
same,Cell density of M. aeruginosa cultures,"M. aeruginosa; BADA 75 ppb, day 0 (initial)",3.8E+05 cells/mL
same,In vivo chlorophyll a concentrations of M. aeruginosa cultures,"M. aeruginosa; BADA 75 ppb, day 0 (initial)",1.20 µg/L
same,In vivo chlorophyll a concentrations of M. aeruginosa cultures,"M. aeruginosa; BADA 75 ppb, day 1",0.50 µg/L
same,In vivo chlorophyll a concentrations of M. aeruginosa cultures,"M. aeruginosa; BADA 75 ppb, day 5",0.05 µg/L
same,In vivo chlorophyll a concentrations of M. aeruginosa cultures,"M. aeruginosa; BADA 75 ppb, day 7",0.05 µg/L
same,In vivo chlorophyll a concentrations of M. aeruginosa cultures,"M. aeruginosa; BADA 75 ppb, day 12",0.60 µg/L
same,Cell density of M. aeruginosa cultures,"M. aeruginosa; BADA 75 ppb, day 14",1.4E+06 cells/mL
same,In vivo chlorophyll a concentrations of M. aeruginosa cultures,"M. aeruginosa; BADA 75 ppb, day 14",1.77 µg/L
same,Cell density of M. aeruginosa cultures,"M. aeruginosa; BADA 100 ppb, day 0 (initial)",3.8E+05 cells/mL
same,In vivo chlorophyll a concentrations of M. aeruginosa cultures,"M. aeruginosa; BADA 100 ppb, day 0 (initial)",1.20 µg/L
same,In vivo chlorophyll a concentrations of M. aeruginosa cultures,"M. aeruginosa; BADA 100 ppb, day 1",0.55 µg/L
same,In vivo chlorophyll a concentrations of M. aeruginosa cultures,"M. aeruginosa; BADA 100 ppb, day 5",0.03 µg/L
same,In vivo chlorophyll a concentrations of M. aeruginosa cultures,"M. aeruginosa; BADA 100 ppb, day 7",0.03 µg/L
same,In vivo chlorophyll a concentrations of M. aeruginosa cultures,"M. aeruginosa; BADA 100 ppb, day 12",0.31 µg/L
same,Cell density of M. aeruginosa cultures,"M. aeruginosa; BADA 100 ppb, day 14",8.7E+05 cells/mL
same,In vivo chlorophyll a concentrations of M. aeruginosa cultures,"M. aeruginosa; BADA 100 ppb, day 14",0.98 µg/L
same,Cell density of M. aeruginosa cultures,"M. aeruginosa; BADA 200 ppb, day 0 (initial)",3.8E+05 cells/mL
same,In vivo chlorophyll a concentrations of M. aeruginosa cultures,"M. aeruginosa; BADA 200 ppb, day 0 (initial)",1.20 µg/L
same,In vivo chlorophyll a concentrations of M. aeruginosa cultures,"M. aeruginosa; BADA 200 ppb, day 1",0.50 µg/L
same,In vivo chlorophyll a concentrations of M. aeruginosa cultures,"M. aeruginosa; BADA 200 ppb, day 5",0.03 µg/L
same,In vivo chlorophyll a concentrations of M. aeruginosa cultures,"M. aeruginosa; BADA 200 ppb, day 7",0.02 µg/L
same,In vivo chlorophyll a concentrations of M. aeruginosa cultures,"M. aeruginosa; BADA 200 ppb, day 12",0.05 µg/L
same,Cell density of M. aeruginosa cultures,"M. aeruginosa; BADA 200 ppb, day 14",1.4E+05 cells/mL
same,In vivo chlorophyll a concentrations of M. aeruginosa cultures,"M. aeruginosa; BADA 200 ppb, day 14",0.16 µg/L
same,Extracted chlorphylll a concentrations of C. kosterae cultures,"Cladophora sp.; BADA 0.2 ppm, day 0 (initial)",14.21 μg/sample
same,Extracted chlorphylll a concentrations of C. kosterae cultures,"Cladophora sp.; BADA 0.2 ppm, day 14",11.01 μg/sample
same,Extracted chlorphylll a concentrations of C. kosterae cultures,"Cladophora sp.; BADA 0.4 ppm, day 0 (initial)",14.21 μg/sample
same,Extracted chlorphylll a concentrations of C. kosterae cultures,"Cladophora sp.; BADA 0.4 ppm, day 14",13.15 μg/sample
same,Extracted chlorphylll a concentrations of C. kosterae cultures,"Cladophora sp.; BADA 0.8 ppm, day 0 (initial)",14.21 μg/sample
same,Extracted chlorphylll a concentrations of C. kosterae cultures,"Cladophora sp.; BADA 0.8 ppm, day 14",12.54 μg/sample
same,Extracted chlorphylll a concentrations of C. kosterae cultures,"Cladophora sp.; BADA 1.0 ppm, day 0 (initial)",14.21 μg/sample
same,Extracted chlorphylll a concentrations of C. kosterae cultures,"Cladophora sp.; BADA 1.0 ppm, day 14",13.26 μg/sample
same,Extracted chlorphylll a concentrations of C. kosterae cultures,"Cladophora sp.; BADA 1.2 ppm, day 0 (initial)",14.21 μg/sample
same,Extracted chlorphylll a concentrations of C. kosterae cultures,"Cladophora sp.; BADA 1.2 ppm, day 14",11.15 μg/sample
same,Extracted chlorphylll a concentrations of C. kosterae cultures,"Cladophora sp.; BADA 1.4 ppm, day 0 (initial)",14.21 μg/sample
same,Extracted chlorphylll a concentrations of C. kosterae cultures,"Cladophora sp.; BADA 1.4 ppm, day 14",8.63 μg/sample
same,Extracted chlorphylll a concentrations of C. kosterae cultures,"Cladophora sp.; BADA 1.8 ppm, day 0 (initial)",14.21 μg/sample
same,Extracted chlorphylll a concentrations of C. kosterae cultures,"Cladophora sp.; BADA 1.8 ppm, day 14",8.70 μg/sample
same,Extracted chlorphylll a concentrations of C. kosterae cultures,"Cladophora sp.; BADA 2.0 ppm, day 0 (initial)",14.21 μg/sample
same,Extracted chlorphylll a concentrations of C. kosterae cultures,"Cladophora sp.; BADA 2.0 ppm, day 14",8.32 μg/sample
same,effectiveness as an algaecide on Cladophora sp.,Cladophora sp.; at concentrations comparable to Cutrine-Plus,effective
